In patent US20240025862A1, “SUBSTITUTED N-PHENYLURACILS AND SALTS THEREOF, AND USE THEREOF AS HERBICIDAL ACTIVE SUBSTANCES” (Bayer Aktiengesellschaft, priority 2020, published 2024):

Key:
Assay type in all cases: in vivo
[1] = test system: Abutilon theophrasti (ABUTH); experiment: Post-emergence herbicidal action, greenhouse pot test; settings: rated visually after about 3 weeks vs untreated controls, 100% = plants have died
Experimental: (§1) Seeds of monocotyledonous and dicotyledonous weeds and crop plants were placed in sandy loam in plastic or wood-fiber pots, covered with soil and cultivated in a greenhouse under controlled growth conditions. 2 to 3 weeks after sowing, the test plants were treated at the one-leaf stage. The compounds of the invention, formulated in the form of wettable powders (WP) or as emulsion concentrates (EC), were then sprayed onto the green parts of the plants as aqueous suspension or emulsion with addition of 0.5% additive at a water application rate of 600 l/ha (converted). After the test plants had been kept in the greenhouse under optimum growth conditions for about 3 weeks, the activity of the preparations was rated visually in comparison to untreated controls. For example, 100% activity=the plants have died, 0% activity=like control plants.
(§2) Tables A1 to A14 below show the effects of selected compounds of the general formula (I) according to Tables I.1 to I.33 on various harmful plants and at an application rate corresponding to 20 g/ha and less, which were obtained by the experimental method specified above. The appendices “a”, “b” and “c” give differentiation by different dosage with otherwise the same harmful plants tested.

[2] = test system: Amaranthus retroflexus (AMARE); experiment: as above; settings: rated visually after about 3 weeks vs untreated controls, 100% = plants have died
Experimental: as §1, §2

[3] = test system: Pharbitis purpurea (PHBPU); experiment: as above
Experimental: as §1, §2

[4] = test system: Polygonum convolvulus (POLCO); experiment: as above
Experimental: as §1, §2

[5] = test system: Veronica persica (VERPE); experiment: as above
Experimental: as §1, §2

[6] = test system: Viola tricolor (VIOTR); experiment: as above
Experimental: as §1, §2

[7] = test system: Alopecurus myosuroides (ALOMY); experiment: Post-emergence herbicidal action, greenhouse pot test (also comparative test C); settings: rated visually after about 3 weeks vs untreated controls, 100% = plants have died
Experimental: as §1, §2
(§3) C. Comparative Herbicidal Action and Crop Plant Compatibility of Two Inventive Compounds (I.7-1 and I.7-115) with a Compound of Similar Structure Known from the Literature (WO2002/098227, a-17 and EP1106607, 3-14) in Post-Emergence Treatment.
(§4) Tables C1-C4 below show the effects of two inventive compounds (I.7-1 and I.7-115) together with a compound of similar structure known from the literature (a-17 in WO2002/098227, and 3-14 in EP1106607) in different crop plants at an application rate corresponding to 5 g/ha or less, which have been obtained by the aforementioned experimental procedure.

[8] = test system: Echinochloa crus-galli (ECHCG); experiment: as above
Experimental: as §1, §2, §3, §4

[9] = test system: Matricaria inodora (MATIN); experiment: as above
Experimental: as §1, §2, §3, §4

[10] = test system: Setaria viridis (SETVI); experiment: as above; settings: for Post-emergence action against SETVI: 20 g/ha
Experimental: as §1, §2, §3, §4

[11] = test system: Triticum aestivum (TRZAS); experiment: Post-emergence crop plant compatibility, greenhouse pot test; settings: vs untreated controls
Experimental: as §1
(§5) The observed effects on selected crop plants are reported here in comparison to the untreated controls (values in %). The appendices “a”, “b” and “c” give differentiation by different dosage with otherwise the same crop plants tested.

[12] = test system: Zea mays (ZEAMX); experiment: as above; settings: 1.25 g/ha, vs untreated controls
Experimental: as §1, §5

[13] = test system: Oryza sativa (ORYSA); experiment: Post-emergence crop plant compatibility, greenhouse pot test (also comparative test C); settings: for Post-emergence action against ORYSA (crop plant compatibility): vs untreated controls
Experimental: as §1, §5, §3

Compound	Post-emergence action at 1.25 g/ha against ABUTH in % [1]	Post-emergence action at 5 g/ha against ABUTH in % [1]	Post-emergence action at 20 g/ha against ABUTH in % [1]	Post-emergence action at 5 g/ha against AMARE in % [2]	Post-emergence action at 20 g/ha against AMARE in % [2]	Post-emergence action against PHBPU in % ([3]; dosage 5 g/ha)	Post-emergence action against PHBPU in % ([3]; dosage 20 g/ha)	Post-emergence action against POLCO in % ([4]; dosage 20 g/ha)	Post-emergence action against VERPE ([5]; 1.25 g/ha)	Post-emergence action against VERPE ([5]; 5 g/ha)	Post-emergence action against VERPE ([5]; 20 g/ha)	Post-emergence action against VIOTR ([6]; 1.25 g/ha)	Post-emergence action against VIOTR ([6]; 5 g/ha)	Post-emergence action against VIOTR ([6]; 20 g/ha)	Post-emergence action at 20 g/ha against ALOMY in % [7]	Post-emergence action against ECHCG in % ([8]; dosage 5 g/ha)	Post-emergence action against ECHCG in % ([8]; dosage 20 g/ha)	Post-emergence action against MATIN in % ([9]; dosage 5 g/ha)	Post-emergence action against MATIN in % ([9]; dosage 20 g/ha)	Post-emergence action against SETVI [10]	further results
Cn1c(C(F)(F)F)cc(=O)n(-c2cc(Oc3ccccc3OCC(=O)OCCC[N+](=O)[O-])c(Cl)cc2F)c1=O [I.7-339]	90%	100%	100%	100%	100%	100%	100%	100%	80%	100%	100%	100%	100%	100%	100%	100%	100%	100%	100%	100%	Post-emergence action at 1.25 g/ha against AMARE in % [2]: 100%; Post-emergence action against PHBPU in % ([3]; dosage 1.25 g/ha): 100%; Post-emergence action against POLCO in % ([4]; dosage 5 g/ha): 100%; Post-emergence action at 5 g/ha against ALOMY in % ([7]; 5 g/ha): 100%; Post-emergence action against SETVI in % ([10]; dosage 1.25 g/ha): 100%; Post-emergence action against SETVI in % ([10]; dosage 5 g/ha): 100%; Post-emergence action against TRZAS (crop plant compatibility) ([11]; 1.25 g/ha): 0%; Post-emergence action against TRZAS (crop plant compatibility) ([11]; 5 g/ha): 20%; Post-emergence action against ZEAMX (crop plant compatibility) [12]: 20%; Post-emergence action against ORYSA (crop plant compatibility) ([13]; 1.25 g/ha): 0%; Post-emergence action against ORYSA (crop plant compatibility) ([13]; 5 g/ha): 10%
Cn1c(C(F)(F)F)cc(=O)n(-c2cc(Oc3c(F)cccc3OCC(=O)OCc3ccccn3)c(Cl)cc2F)c1=O [I.19-276]	100%	100%	100%	100%	100%	100%	100%	100%	100%	100%	100%	100%	100%	100%	90%	100%	100%	100%	100%	100%	Post-emergence action at 1.25 g/ha against AMARE in % [2]: 100%; Post-emergence action against POLCO in % ([4]; dosage 5 g/ha): 100%; Post-emergence action against SETVI in % ([10]; dosage 1.25 g/ha): 100%; Post-emergence action against SETVI in % ([10]; dosage 5 g/ha): 100%; Post-emergence action against TRZAS (crop plant compatibility) ([11]; 1.25 g/ha): 20%; Post-emergence action against ZEAMX (crop plant compatibility) [12]: 20%; Post-emergence action against ORYSA (crop plant compatibility) ([13]; 1.25 g/ha): 0%; Post-emergence action against ORYSA (crop plant compatibility) ([13]; 5 g/ha): 0%
Cn1c(C(F)(F)F)cc(=O)n(-c2cc(Oc3ccccc3OCC(=O)OCc3cccnc3)c(Cl)cc2F)c1=O [I.7-277]	90%	100%	100%	100%	100%	100%	100%	100%	100%	100%	100%	80%	100%	100%	100%	100%	100%	80%	100%	100%	Post-emergence action at 1.25 g/ha against AMARE in % [2]: 100%; Post-emergence action against SETVI in % ([10]; dosage 1.25 g/ha): 100%; Post-emergence action against SETVI in % ([10]; dosage 5 g/ha): 100%; Post-emergence action against TRZAS (crop plant compatibility) ([11]; 1.25 g/ha): 0%; Post-emergence action against TRZAS (crop plant compatibility) ([11]; 5 g/ha): 20%; Post-emergence action against ZEAMX (crop plant compatibility) [12]: 0%; Post-emergence action against ORYSA (crop plant compatibility) ([13]; 1.25 g/ha): 0%; Post-emergence action against ORYSA (crop plant compatibility) ([13]; 5 g/ha): 0%; Post-emergence action against ORYSA in % ([13]; 20 g/ha, crop plant compatibility): 20%
COCCOC(=O)COc1ccc(F)cc1Oc1cc(-n2c(=O)cc(C(F)(F)F)n(C)c2=O)c(F)cc1Cl [I.23-1]	100%	100%	100%	100%	100%	80%	80%	100%	80%	100%	100%	80%	100%	100%	90%	100%	100%	80%	100%	100%	Post-emergence action against POLCO in % ([4]; dosage 1.25 g/ha): 90%; Post-emergence action against POLCO in % ([4]; dosage 5 g/ha): 100%; Post-emergence action against SETVI in % ([10]; dosage 1.25 g/ha): 100%; Post-emergence action against SETVI in % ([10]; dosage 5 g/ha): 100%; Post-emergence action against TRZAS (crop plant compatibility) ([11]; 1.25 g/ha): 20%; Post-emergence action against ZEAMX (crop plant compatibility) [12]: 20%; Post-emergence action against ORYSA (crop plant compatibility) ([13]; 1.25 g/ha): 0%
